BindingDB's records for doi:10.1016/j.bmcl.2010.08.042 (Vanderbilt University Medical Center, 2010)
pEC50: −log10 of the molar value.

Target: T1, Muscarinic acetylcholine receptor M1 (Homo sapiens, UniProt P11229)
T1 sequence (P11229 whole entry): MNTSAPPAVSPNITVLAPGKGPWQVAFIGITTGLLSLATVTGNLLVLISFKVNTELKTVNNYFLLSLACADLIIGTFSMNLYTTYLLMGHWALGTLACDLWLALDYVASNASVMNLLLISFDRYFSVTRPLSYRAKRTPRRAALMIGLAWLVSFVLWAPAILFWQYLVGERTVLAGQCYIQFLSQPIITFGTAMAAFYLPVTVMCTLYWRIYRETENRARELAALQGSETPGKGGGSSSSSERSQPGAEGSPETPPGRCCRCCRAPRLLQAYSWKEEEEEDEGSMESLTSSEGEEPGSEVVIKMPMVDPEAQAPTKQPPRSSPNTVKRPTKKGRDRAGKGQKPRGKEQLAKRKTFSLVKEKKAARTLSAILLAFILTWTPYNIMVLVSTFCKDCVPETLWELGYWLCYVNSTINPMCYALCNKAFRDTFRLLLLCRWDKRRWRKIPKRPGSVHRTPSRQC
Test: Positive allosteric modulation of muscarinic M1 receptor expressed in CHO cells assessed as effect on acetylcholine-induced intracellular calcium mobilization after 1 hr by FLIPR assay

pEC50: 5.21
SMILES: O=C1C(=O)N(Cc2ccc(Br)cc2)c2ccccc21
